Publication PMC9575645 (Signal Transduction and Targeted Therapy, 2022)

Legend:
[1] = test system: Influenza A virus (H1N1) (PR8); conditions: for SI (CC50/IC50) / IC50: Influenza A virus (H1N1) (PR8); for IC50: A549 cells
LLC-PK = experiment: Cytotoxicity, MTT assay, LLC-PK; assay type: cell-based, porcine
Method: (§1) The cytotoxic effects of the chemicals and their solvents were tested by the MTT assay,[44] and its procedure is described in Supplementary Information.
(§2) The cytotoxic effects of the chemicals and their solvents used were tested by the MTT assay as described previously.^10 In brief, the chemicals were dissolved in DMSO to a stock concentration of 10 mM, and then freshly serially diluted in serum-free medium before being added to cell culture monolayers. The absorbance was measured using an enzyme-linked immunosorbent assay (ELISA) reader at an optical density (OD) of 570 nm. The percent cell viability was calculated using the following formula, [(ODsample˗ODblank)/(ODcontrol˗ODblank)] × 100%. According to the cell cytotoxicity data, dose-response curves were generated for the calculation of CC50 using GraphPad Prism software version 8.4.2.

[2] = test system: Species A Rotavirus (NCDV); conditions: for IC50: Species A Rotavirus (NCDV), MA104 cells
[3] = test system: Bovine coronavirus (KWD20); experiment: In vitro antiviral activity against BCoV in HRT-18G cells (CCIF viral yield); assay type: cell-based; conditions: for IC50: HRT-18G cells
Method: Cells were grown in 6- or 12-well plates or 8-well chamber slides to the desired confluency and then washed twice with phosphate-buffered saline (PBS, pH 7.4). They were then mock-inoculated with medium only or virus-inoculated with various multiplicities of infection (MOI): MOI of 0.01 or 1 FFU/cell for IAV, and MOI of 0.01 or 0.1 FFU/cell for SARS-CoV-2, BCoV, PEDV, PRRSV, and PSaV. Thereafter, each inoculum was absorbed for 1 h, and the cells were washed twice with PBS (pH 7.4). As shown in Supplementary Table 4, further treatments and incubations varied dependent on the virus species used. Cells treated with PKA inhibitor H89 (5 μM or 50 μM concentration) or vehicle-treated immediately after absorption of IAV at an MOI of 1 FFU or SARS-CoV-2 at an MOI of 0.1 FFU were incubated for 24 and 36 h, respectively, and each cell lysate was used for the detection of HSL and pHSL by western blot analysis as described below. Cells treated with lipase inhibitors at the median incubation time of IAV or SARS-CoV-2 as described in the above condition were supplemented with LA, OA, or PA at 100 µM concentration and left incubation for further median incubation time. The cells were used to assess levels of intracellular TAGs, cholesterol, FFAs, glycerol, FAO, proinflammatory cytokines as well as viral genome copy numbers and virus titers as described below and in Supplementary Information.
To determine the antiviral effects of chemicals, serial 10-fold dilutions of each cell culture supernatant after three cycles of freezing and thawing cycles were prepared in appropriate medium supplemented with 100 U/mL penicillin and 100 μg/mL streptomycin as described above. To determine the viral infectivity titer in lung tissues from the hamsters challenged with or without SARS-CoV-2, or administered with or without inhibitors as described above, aseptically sampled lungs from five hamsters per group at day five post-virus infection were harvested. Cleared supernatants from lung tissue as produced from IAV-infected mice above were serially tenfold-diluted with virus growth medium. […] The cells were washed twice with PBS (pH 8.0), mounted with 60% glycerol, and observed byr inverted fluorescence microscopy. The number of cells showing a viral antigen-positive signal at the endpoint dilution were counted. IC50 was calculated using GraphPad Prism software version 8.4.2. […] CC50 data from the MTT assay and IC50 from the IF assay were both calculated using GraphPad Prism software version 8.4.2.

lipid droplets (LDs) = experiment: BODIPY lipid droplet immunofluorescence in SARS-CoV-2-infected Vero E6 cells; assay type: cell-based, African green monkey; conditions: SARS-CoV-2-infected cells, MOI = 0.1 FFU; 20 µM
Method: To characterize the dynamics of LD formation, apoptotic and necroptotic cells, and virus infectivity, an IFA was performed with the […], MDCK, Caco-2, Vero E6, MA104, MARC-145, LLC-PK, and HRT-18G cells, infected with or without each virus, and treated with vehicles or chemicals at the different time points (Table S3), or transfected with siRNA or scrambled siRNA as described above.^ 16^,27^,28 Briefly, cells were prepared in 8-well chamber slides infected with IAV, SARS-CoV-2, BCoV, PEDV, RVA, PRRSV, or PSaV at an MOI of 1 (IAV), or MOI of 0.1 (SARS-CoV-2, BCoV, PEDV, RVA, PRRSV, or PSaV) and treated with or without chemicals. […] Subsequently, cells were washed thrice with PBS (pH 7.4) and mounted with SlowFade Gold antifade reagent containing 1 × DAPI solution (Molecular Probes) for nucleus staining, observed with a LSM 800 confocal microscope, and analysed using Zen Blue Software 2.6 (Carl Zeiss; Jena, Germany).
The number and size of intracellular LDs were measured as described previously.^28 Briefly, four images were taken of each sample and converted into a pixel unit, and the data were processed and quantified using Adobe Photoshop CS6. […] The results were expressed as relative values, where the average number and size of pixels of positive color in virus-infected groups were normalized to those of the mock-treated, mock-infected control.

SARS-CoV-2 S protein = assay type: cell-based
HRT18G = experiment: Cytotoxicity, MTT assay, HRT18G; assay type: cell-based, human
Method: as §1, §2

[4] = test system: proinflammatory cytokines; experiment: Proinflammatory cytokines in SARS-CoV-2-infected Vero E6 cells (RT-qPCR, ELISA); assay type: cell-based, African green monkey; conditions: 20 μM
MA104 = experiment: Cytotoxicity, MTT assay, MA104; assay type: cell-based, African green monkey
Method: as §1, §2

Structure (SMILES)	virus replication (genome copy number, infectious progeny) [1]	SI (CC50/IC50) [1]	IC50 [1]	CC50 (LLC-PK)	SI (CC50/IC50) [2]	IC50 [2]	SI (CC50/IC50) [3]	IC50 [3]	intracellular LDs (BODIPY) (lipid droplets (LDs))	palmitoylation of the SARS-CoV-2 spike (S) protein (SARS-CoV-2 S protein)	CC50 (HRT18G)	levels of TNF-α, IL-6, and MCP-1 [4]	CC50 (MA104)
CN(C)C(=O)Nc1cccc(-c2ccc(N(C)C)cc2)c1 [Atglistatin]	inhibiting the replication	251	0.82 ± 0.08 µM	224 ± 2.3 µM	32	6.7 ± 0.49 µM	152	1.2 ± 0.04 µM	Retention of LDs	significantly inhibited	182 ± 2.6 µM	markedly reduced	214.5 ± 2 µM
COc1nn(-c2ccc(NC(=O)OCc3ccccc3)c(C)c2)c(=O)o1 [CAY10499]	inhibiting the replication	27	4.13 ± 0.46 µM	109 ± 8.1 µM	5	20.9 ± 5.06 µM	14	7.3 ± 0.52 µM	Retention of LDs	significantly inhibited	104 ± 9.1 µM	markedly reduced	107 ± 5.6 µM
